IC50 and Activity data for 17 compounds are collected here from ChEMBL document CHEMBL5038649, “Chemical Space Expansion of Flavonoids: Induction of Mitotic Inhibition by Replacing Ring B with a 10π-Electron System, Benzo[b]thiophene” (J Nat Prod, 2022).

In one test the test system is A549. As to the kind of experiment: Antiproliferative activity against human A549 cells assessed as reduction in cell viability after 72 hrs by SRB assay. Type of test: functional, cell-based. The conditions noted are these: A549, 72 h. On the technique in general: Sulforhodamine B stains cellular protein and so reports cell mass.
For test [1], the system named is MDA-MB-231. As to the kind of experiment: Antiproliferative activity against human MDA-MB-231 cells assessed as reduction in cell viability after 72 hrs by SRB assay. The test is classed as functional, cell-based. The conditions noted are these: MDA-MB-231, 72 h.
The next test concerns MCF7. As to the kind of experiment: Antiproliferative activity against human MCF7 cells assessed as reduction in cell viability after 72 hrs by SRB assay. The conditions noted are these: MCF7, 72 h. Type of test: functional, cell-based.
For a further test, the system named is KB. As to the kind of experiment: Antiproliferative activity against human KB cells assessed as reduction in cell viability after 72 hrs by SRB assay. The test is classed as functional, cell-based.
Test [2] in a line: Antiproliferative activity against human KB-VIN cells assessed as reduction in cell viability after 72 hrs by SRB assay. The test is classed as functional, cell-based. The conditions noted are these: KBVIN.
Test [3] concerns MDA-MB-231. As to the kind of experiment: Cell cycle arrest in human MDA-MB-231 cells assessed as accumulation at G2/M phase incubated for 24 hrs by propidium iodide staining based flow cytometric analysis. Type of test: functional. On the technique in general: In flow cytometry, cells or beads pass a laser one at a time.
The next test deals with Tubulin (Homo sapiens) (UniProt P68371+Q9H4B7+P0DPH7+P68366+Q13509+Q71U36+P04350+Q3ZCM7+P07437+P68363+Q9BQE3+Q6PEY2+Q13885+Q9BVA1+Q9BUF5). As to the kind of experiment: Induction of microtubule depolymerization in human MDA-MB-231 cells assessed as spindle formation incubated for 24 hrs by immunofluorescence staining based confocal microscopic analysis. Type of test: cell-based.

The source made the active and inactive calls. No cut-off for these calls is given here. Bounds are passed on as bounds.

Usually IC50 stands for the concentration needed to halve the response being measured. As to `COc1cc2occ(-c3csc4ccccc34)c(=O)c2c(OC)c1OC`, the IC50 with A549 was determined as 0.64 µM; with MDA-MB-231 [1] it was 0.82 µM; in the test with MCF7 it was 0.74 µM; in the test on KB, 0.82 µM; in test [2], 0.51 µM. Further, in the test on MDA-MB-231 [3], the Activity result was “Dose-Dependent Effect”. Further, the outcome at Tubulin (Homo sapiens) was inactive.
In the case of `COc1ccc(/C=C\c2cc(OC)c(OC)c(OC)c2)cc1O`, the Activity result with MDA-MB-231 [3] was “Dose-Dependent Effect”. In addition, the result at Tubulin (Homo sapiens) was Active.
As to `Cc1ccc(O)c(C(=O)/C=C/c2csc3ccccc23)c1`, the 50% inhibitory concentration (IC50) with A549 stood at 4.8 µM; in the test with MDA-MB-231 [1], 6 µM; with MCF7, 7.8 µM; in the test on KB it was 4.9 µM; in test [2], 4.3 µM.
As for `COc1cc(O)c(C(=O)/C=C/c2csc3ccccc23)cc1OC`, the IC50 amounted to 0.45 µM in the test on A549; 0.69 µM in the test on MDA-MB-231 [1]; 0.71 µM with MCF7; 0.52 µM in the test with KB; 0.27 µM in test [2].
As for `O=C1/C(=C/c2csc3ccccc23)Oc2ccccc21`, the IC50 (in the test with A549; in the test with MDA-MB-231 [1]; in the test on MCF7; with KB; in test [2]) was more than 10 µM each time.
As to `COc1c(OC(C)C)cc2ccc(-c3cc(=O)c4ccccc4o3)cc2c1OC(C)C`, the IC50 in the test with A549 was more than 10 µM; in the test on MDA-MB-231 [1], more than 10 µM; with MCF7, more than 10 µM; in the test with KB it was more than 10 µM; in test [2] it was 8.2 µM.
For the compound `O=c1c(-c2csc3ccccc23)coc2ccccc12`, the IC50 (in the test on A549; with MDA-MB-231 [1]; with MCF7; in the test on KB; in test [2]) was more than 10 µM in each case.
In the case of `COc1cc2occ(-c3csc4ccccc34)c(=O)c2cc1OC`, the IC50 (in the test on A549; in the test on MDA-MB-231 [1]; in the test with MCF7; in the test with KB; in test [2]) was more than 10 µM in each case.
`COc1c(OC(C)C)cc2c(c1O)C(=O)/C(=C/c1csc3ccccc13)O2`: the IC50 (with A549; with MDA-MB-231 [1]; in the test on MCF7; with KB; in test [2]) was more than 10 µM each time.
On to `O=C(/C=C/c1ccccc1)c1cccc2ccccc12`, for which the IC50 in the test with A549 was 5 µM; in the test with MDA-MB-231 [1], 6 µM; in the test on MCF7 it was 9.8 µM; in the test with KB, 6.2 µM; in test [2] it was 5.4 µM.
With `O=C(/C=C/c1csc2ccccc12)c1c(O)ccc2ccccc12`, the IC50 with A549 was found to be 0.58 µM; with MDA-MB-231 [1] it was 0.8 µM; with MCF7, 0.89 µM; with KB, 0.64 µM; in test [2], 0.48 µM. For the same compound, in the test on MDA-MB-231 [3], the Activity result was “Dose-Dependent Effect”. In addition, the outcome at Tubulin (Homo sapiens) was Active.
With `COc1ccc(O)c(C(=O)/C=C/c2cc3ccccc3s2)c1`, the IC50 (in the test with A549; in the test with MDA-MB-231 [1]; in the test on MCF7; in the test with KB; in test [2]) was more than 10 µM in each case.
For `COc1cc2c(c(OC)c1OC)O/C(=C\c1csc3ccccc13)C2=O`, the IC50 in the test with A549 came to 0.59 µM; with MDA-MB-231 [1], 0.8 µM; in the test with MCF7, 0.75 µM; with KB, 0.61 µM; in test [2], 0.48 µM. In addition, in the test on MDA-MB-231 [3], the Activity entry is “Dose-Dependent Effect”. The result at Tubulin (Homo sapiens) was inactive.
`O=C(/C=C/c1ccccc1)c1ccccc1` [CHALCONE]: the IC50 (in the test on A549; with MDA-MB-231 [1]; in the test with MCF7; in the test on KB; in test [2]) was more than 10 µM each time.
Regarding `COc1ccc(/C=C/C(=O)c2csc3ccccc23)cc1`, the IC50 with A549 was more than 10 µM; in the test with MDA-MB-231 [1], more than 10 µM; in the test with MCF7, more than 10 µM; in the test with KB, more than 10 µM; in test [2], 8.1 µM.
As to `COc1ccc(O)c(C(=O)/C=C/c2csc3ccccc23)c1`, the IC50 turned out to be 0.58 µM in the test on A549; 0.76 µM in the test with MDA-MB-231 [1]; 0.75 µM with MCF7; 0.64 µM with KB; 0.4 µM in test [2].
The like results for `O=C1/C(=C/c2ccccc2)Oc2ccccc21` [(Z)-AURONE] were, in that order, more than 10 µM, more than 10 µM, more than 10 µM, more than 10 µM and more than 10 µM.
